Laboratory results taken from patent US10285983B2, “3-(1H-pyrrolo[2,3-B]pyridin-2-yl)-1H-pyrazolo[3,4-B] pyridines and therapeutic uses thereof” (Samumed, LLC, priority 2015, dated 2019).

Key:
[1] = system: primary human mesenchymal stem cells (hMSCs); test: Chondrogenesis induction in hMSCs (nodule count, Rhodamine B/Nile Red); format: cell-based; settings: 144 h, 6 days; for Emax: relative to TGF-β3 (10 ng/mL) positive control, read-out: Max. Activity as % TGF-β3 activity; for EC50: concentration required to induce 50% levels of chondrogenesis vs TGF-β3, read-out: Conc (nM) of 50% TGF-β3 activity
Protocol: Representative compounds were screened using primary human mesenchymal stem cells (hMSCs) to determine their ability to induce chondrogenesis (process by which cartilage is developed).
Primary human mesenchymal stem cells (hMSCs) were purchased from Lonza (Walkersville, Md.) and expanded in Mesenchymal Stem Cell Growth Media (Lonza). Cells between passage 3 and 6 were used for the experiments.
Each compound was dissolved in DMSO as a 10 mM stock and used to prepare compound source plates. Serial dilution (1:3, 6-point dose-response curves from 2700 nM to 10 nM) and compound transfer was performed using the ECHO 550 (Labcyte, Sunnyvale, Calif.) into 96-well clear bottom assay plates (Greiner Bio-One) with appropriate DMSO backfill for a final DMSO concentration of 0.03%. hMSCs were plated at 20,000 cells/well in 250 μL/well Incomplete Chondrogenic Induction Medium (Lonza; DMEM, dexamethasone, ascorbate, insulin-transferrin-selenium [ITS supplement], gentamycin-amphotericin [GA-1000], sodium pyruvate, proline and L-glutamine). TGF-β3 (10 ng/mL) was used as a positive control for differentiation while negative control wells were treated with 75 nL DMSO for normalization and calculating EC50 values. Cells were incubated at 37° C. and 5% CO2 for 6 days. To image chondrogenic nodules, the cells were fixed using 4% formaldehyde (Electron Microscopy Sciences), and stained with 2 μg/mL Rhodamine B (Sigma-Aldrich) and 20 μM Nile Red (Sigma-Aldrich) [Johnson K., et. al, A Stem Cell-Based Approach to Cartilage Repair, Science, (2012), 336(6082), 717-721]. The nodules imaged (4 images per well at 4× magnification) by excitation at 531 nm and emission at 625 nm and quantified using the CellInsight CX5 (Thermo Scientific). Number of nodules in each well was normalized to the average of 3 DMSO treated wells on the same plate using Excel (Microsoft Inc.). The normalized averages (fold change over DMSO) of 3 replicate wells for each compound concentration were calculated. Due to solubility limitations of some of the compounds, curve fitting was incomplete leading to inaccurate EC50 determinations.
Using TGF-β3 as a positive control, the concentration of representative compounds required to induce 50% levels of chondrogenesis is reported. In addition, the maximum activity of each compound and the respective dose that each compound reached maximum chondrogenesis activity is reported.

[2] = system: Wnt activity (Sp5-Luc reporter, SW480 colon carcinoma cells); test: Wnt activity screening assay, Sp5-Luc reporter gene in SW480 cells; format: cell-based; settings: Homo sapiens; for inhibition at 10 µM: given for EC50 >10 μM, read-out: percent inhibition at 10 μM; for EC50: overnight incubation
Text: The screening assay for Wnt activity is described as follows. Reporter cell lines can be generated by stably transducing cancer cell lines (e.g., colon cancer) or primary cells (e.g., IEC-6 intestinal cells) with a lentiviral construct that includes a Wnt-responsive promoter driving expression of the firefly luciferase gene.
SW480 colon carcinoma cells were transduced with a lentiviral vector expressing luciferase with a human Sp5 promoter consisting of a sequence of eight TCF/LEF binding sites. SW480 cells stably expressing the Sp5-Luc reporter gene and a hygromycin resistance gene were selected by treatment with 150 μg/mL of hygromycin for 7 days. These stably transduced SW480 cells were expanded in cell culture and used for all further screening activities. Each compound was dissolved in DMSO as a 10 mM stock and used to prepare compound source plates. Serial dilution (1:3, 10-point dose-response curves starting from 10 μM) and compound transfer was performed using the ECHO 550 (Labcyte, Sunnyvale, Calif.) into 384-well white solid bottom assay plates (Greiner Bio-One) with appropriate DMSO backfill for a final DMSO concentration of 0.1%. For Sp5-Luc reporter gene assays, the cells were plated at 4,000 cells/well in 384-well plates with medium containing 1% fetal bovine serum and incubated overnight at 37° C. and 5% CO2. Following incubation, 20 μl of BrightGlo luminescence reagent (Promega) was added to each well of the 384-well assay plates. The plates were placed on an orbital shaker for 2 min and then luminescence was quantified using the Envision (Perkin Elmer) plate reader. Readings were normalized to DMSO only treated cells, and normalized activities were utilized for EC50 calculations using the dose-response log (inhibitor) vs. response—variable slope (four parameters) nonlinear regression feature available in GraphPad Prism 5.0 (or Dotmatics). For EC50 of >10 μM, the percent inhibition at 10 μM is provided.

| SMILES | Emax [1] [%] | inhibition at 10 µM [2] [%] | EC50 [2] [µM] | EC50 [1] [nM] |
| --- | --- | --- | --- | --- |
| O=C(CC1CCNCC1)Nc1cncc(-c2cnc3[nH]nc(-c4cc5c(-c6ccncc6)ccnc5[nH]4)c3c2)c1 [Compound 577] | 27 | 12.5 | > 10 | – |
| CC(C)Nc1cncc(-c2cnc3[nH]nc(-c4cc5c(-c6ccccc6F)ccnc5[nH]4)c3c2)c1 [Compound 68, 5-(3-(4-(2-Fluorophenyl)-1H-pyrrolo[2,3-b]pyridin-2-yl)-1H-pyrazolo[3,4-b]pyridin-5-yl)-N-isopropylpyridin-3-amine] | 82 | 4.6 | > 10 | 10 |
| CCCC(=O)Nc1cncc(-c2cnc3[nH]nc(-c4cc5c(-c6ccncc6)ccnc5[nH]4)c3c2)c1 [Compound 129, N-(5-(3-(4-(Pyridin-4-yl)-1H-pyrrolo[2,3-b]pyridin-2-yl)-1H-pyrazolo[3,4-b]pyridin-5-yl)pyridin-3-yl)butyramide] | 50 | 35 | > 10 | 30 |
| Cc1ccncc1-c1cnc2[nH]nc(-c3cc4c(-c5ccc(F)cc5)ccnc4[nH]3)c2c1 [Compound 33, 3-(4-(4-Fluorophenyl)-1H-pyrrolo[2,3-b]pyridin-2-yl)-5-(4-methylpyridin-3-yl)-1H-pyrazolo[3,4-b]pyridine] | 108 | 2.7 | > 10 | 900 |
| CN1CCN(c2ccnc3[nH]c(-c4n[nH]c5ncc(-c6cn[nH]c6)cc45)cc23)CC1 [Compound 635, 3-(4-(4-Methylpiperazin-1-yl)-1H-pyrrolo[2,3-b]pyridin-2-yl)-5-(1H-pyrazol-4-yl)-1H-pyrazolo[3,4-b]pyridine] | 20 | 5.8 | > 10 | – |
| Fc1cccc(-c2ccnc3[nH]c(-c4n[nH]c5ncc(-c6cccnc6)cc45)cc23)c1 [Compound 4, 3-(4-(3-Fluorophenyl)-1H-pyrrolo[2,3-b]pyridin-2-yl)-5-(pyridin-3-yl)-1H-pyrazolo[3,4-b]pyridine] | – | 7.6 | > 10 | – |
| O=C(Nc1cncc(-c2cnc3[nH]nc(-c4cc5c(-c6cccnc6)ccnc5[nH]4)c3c2)c1)C1CC1 [Compound 104, N-(5-(3-(4-(Pyridin-3-yl)-1H-pyrrolo[2,3-b]pyridin-2-yl)-1H-pyrazolo[3,4-b]pyridin-5-yl)pyridin-3-yl)cyclopropanecarboxamide] | – | 0 | > 10 | – |
| Fc1ccc(-c2ccnc3[nH]c(-c4n[nH]c5ncc(-c6cncc(CN7CCCCC7)c6)cc45)cc23)cc1 [Compound 43, 3-(4-(4-Fluorophenyl)-1H-pyrrolo[2,3-b]pyridin-2-yl)-5-(5-(piperidin-1-ylmethyl)pyridin-3-yl)-1H-pyrazolo[3,4-b]pyridine] | – | 2.8 | > 10 | – |
| CN(C)c1cncc(-c2cnc3[nH]nc(-c4cc5c(-c6cccs6)ccnc5[nH]4)c3c2)c1 [Compound 343, N,N-Dimethyl-5-(3-(4-(thiophen-2-yl)-1H-pyrrolo[2,3-b]pyridin-2-yl)-1H-pyrazolo[3,4-b]pyridin-5-yl)pyridin-3-amine] | – | 18.3 | > 10 | – |
| Cc1ccncc1-c1cnc2[nH]nc(-c3cc4c(-c5ccncc5)ccnc4[nH]3)c2c1 [Compound 117, 5-(4-Methylpyridin-3-yl)-3-(4-(pyridin-4-yl)-1H-pyrrolo[2,3-b]pyridin-2-yl)-1H-pyrazolo[3,4-b]pyridine] | – | 13 | > 10 | – |
| Fc1cccc(-c2ccnc3[nH]c(-c4n[nH]c5ncc(-c6ccccn6)cc45)cc23)c1 [Compound 28, 3-(4-(3-Fluorophenyl)-1H-pyrrolo[2,3-b]pyridin-2-yl)-5-(pyridin-2-yl)-1H-pyrazolo[3,4-b]pyridine] | – | 15 | > 10 | – |
| Oc1cncc(-c2cnc3[nH]nc(-c4cc5c(-c6ccc(F)cc6)ccnc5[nH]4)c3c2)c1 [Compound 533, 5-(3-(4-(4-Fluorophenyl)-1H-pyrrolo[2,3-b]pyridin-2-yl)-1H-pyrazolo[3,4-b]pyridin-5-yl)pyridin-3-ol] | – | 3.4 | > 10 | – |
| CC(C)CC(=O)Nc1cncc(-c2cnc3[nH]nc(-c4cc5c(-c6ccc(F)cc6)ccnc5[nH]4)c3c2)c1 [Compound 30, N-(5-(3-(4-(4-Fluorophenyl)-1H-pyrrolo[2,3-b]pyridin-2-yl)-1H-pyrazolo [3,4-b]pyridin-5-yl)pyridin-3-yl)-3-methylbutanamide] | – | 11.9 | > 10 | – |
| Cc1ncc(-c2cnc3[nH]nc(-c4cc5c(-c6cc(F)cc(NCCN(C)C)c6)ccnc5[nH]4)c3c2)n1C [Compound 781, N^1-(3-(2-(5-(1,2-Dimethyl-1H-imidazol-5-yl)-1H-pyrazolo[3,4-b]pyridin-3-yl)-1H-pyrrolo[2,3-b]pyridin-4-yl)-5-fluorophenyl)-N^2,N^2-dimethylethane-1,2-diamine] | – | – | 4.46 | – |
| CCC(=O)Nc1cncc(-c2cnc3[nH]nc(-c4cc5c(-c6cccc(F)c6)ccnc5[nH]4)c3c2)c1 [Compound 1, N-(5-(3-(4-(3-Fluorophenyl)-1H-pyrrolo[2,3-b]pyridin-2-yl)-1H-pyrazolo [3,4-b]pyridin-5-yl)pyridin-3-yl)propionamide] | – | 46.1 | > 10 | – |
| O=C(Nc1cncc(-c2cnc3[nH]nc(-c4cc5c(-c6ccc(F)cc6)ccnc5[nH]4)c3c2)c1)C1CCCCC1 [Compound 51, N-(5-(3-(4-(4-Fluorophenyl)-1H-pyrrolo[2,3-b]pyridin-2-yl)-1H-pyrazolo [3,4-b]pyridin-5-yl)pyridin-3-yl)cyclohexanecarboxamide] | – | 14.2 | > 10 | – |
| Fc1ccc(-c2ccnc3[nH]c(-c4n[nH]c5ncc(-c6cncc(CN7CCC(F)(F)C7)c6)cc45)cc23)cc1 [Compound 54, 5-(5-((3,3-Difluoropyrrolidin-1-yl)methyl)pyridin-3-yl)-3-(4-(4-fluorophenyl)-1H-pyrrolo[2,3-b]pyridin-2-yl)-1H-pyrazolo[3,4-b]pyridine] | – | 8.7 | > 10 | – |
| c1csc(-c2ccnc3[nH]c(-c4n[nH]c5ncc(-c6cncc(OC7CCCCC7)c6)cc45)cc23)c1 [Compound 703, 5-(5-(Cyclohexyloxy)pyridin-3-yl)-3-(4-(thiophen-2-yl)-1H-pyrrolo[2,3-b]pyridin-2-yl)-1H-pyrazolo[3,4-b]pyridine] | – | 38.6 | > 10 | – |
| CC(C)C(=O)Nc1cncc(-c2cnc3[nH]nc(-c4cc5c(-c6cccnc6)ccnc5[nH]4)c3c2)c1 [Compound 93, N-(5-(3-(4-(Pyridin-3-yl)-1H-pyrrolo[2,3-b]pyridin-2-yl)-1H-pyrazolo[3,4-b]pyridin-5-yl)pyridin-3-yl)isobutyramide] | – | 15.4 | > 10 | – |
| O=C(Nc1cncc(-c2cnc3[nH]nc(-c4cc5c(-c6ccncc6)ccnc5[nH]4)c3c2)c1)C1CCCCC1 [Compound 135, N-(5-(3-(4-(Pyridin-4-yl)-1H-pyrrolo[2,3-b]pyridin-2-yl)-1H-pyrazolo[3,4-b]pyridin-5-yl)pyridin-3-yl)cyclohexanecarboxamide] | – | 16.4 | > 10 | – |
